Assay results as given in paper PMC10226132, “First-in-Class Selective Inhibitors of the Lysine Acetyltransferase KAT8” (Journal of Medicinal Chemistry, 2023).

How the values were obtained:
[1] = test system: H460 cells; assay: MTT cell proliferation assay, H460; format: cell-based, human; conditions: 10, 25, 50, 100 μM, 72 h
Description: (§1) Human commercially available AML U937, breast cancer MCF7, lung adenocarcinoma NCI-H460, H1299 and A-549, glioblastoma U251, B lymphocyte AHH1 cell lines were maintained in compete 10% foetal bovine serum (FBS,) RPMI 1640 (Euroclone, Milan, IT) medium. Human commercially available colon cancer HCT116 and HT29 lines and cervix adenocarcinoma HeLa cells were maintained in compete 10% FBS Dulbecco’s Modified Eagle Medium (DMEM) high glucose medium (Euroclone). L-Glutamine, FBS, and penicillin streptomycin mixture added to medium were obtained from Euroclone. All cell lines were cultured at 37 °C in a humidified atmosphere of 5% CO2:95% air and were tested for mycoplasma contamination routinely by RT-PCR.
(§2) For analysis of cell proliferation, cells were plated in sextuplicate on 96-well plates in complete media. After 24 h, cells were exposed to different drugs for 72 h. The inhibitory effect of different drugs was assessed by MTT (Sigma, St. Louis, MO, USA) colorimetric assays as previously reported.[67] Aqueous DMSO (0.5% v/v) was used as a control (untreated). The results are reported as “viability of drug-treated cells/viability of untreated cells” × 100 and represent the average ±SD of three independent experiments. IC50 values were using fitted by nonlinear regression using GraphPad Prism 8.0.

[2] = test system: A549 cells; assay: MTT cell proliferation assay, A549; format: cell-based, human; conditions: for antiproliferative activity in A549: 10, 25, 50, 100 μM; for IC50: 72 h treatment, MTT
Description: as §1, §2

[3] = test system: H3K27Ac in HT29 cells; assay: Immunofluorescence of H3K27Ac in HT29 cells; format: cell-based, human; conditions: 24 h, vs control
Method: For IF analysis, 1 × 10^5 HT-29 cells were grown on sterile coverslips. After 24 h, cells were exposed to different compounds for 24 h. IF staining for different acetylated lysine residues of histone H3 (H3K27Ac) and H4 (H4K16Ac) were carried out on PFA-fixed cells blocked with 20% goat serum in PBS and incubated overnight at 4 °C with primary rabbit monoclonal antibodies histone H3K27Ac (D5E4, Rabbit mAb#8173) and H4K16Ac (E2B8W, Rabbit mAb#13534, Cell Signalling Technology). Primary antibodies were detected using rabbit anti-IgG secondary antibodies conjugated with Cy3 (Jackson Immunoresearch 711-165-152). DNA was stained using 0.05 μg/mL 4′,6-diamidino-2-phenylindole (DAPI). The samples were acquired using an Olympus AX70 (Olympus America Inc.) microscope. Serial Z stacks of 0.4 μm thickness were acquired, taking care to cover the entire cell volume. For quantification of fluorescence intensity signals, images of untreated or treated cells were analyzed and processed using opensource Cell Profiler 4.1.3 image analysis software (https://cellprofiler.org/) to measure fluorescence-integrated intensity values for antibody binding relating to individual cells as previously reported.[67]

[4] = test system: H1299-EGFP-LC3 cells; assay: Fluorescence microscopy of autophagosomes in EGFP-LC3 H1299 cells; format: cell-based, human; conditions: increasing doses, 48 h
Method: The stable EGFP-LC3 H1299 cell line was used to detect autophagic structures by fluorescence spinning disk microscopy. Cells were grown on glass coverslips, treated with compounds for 48 h and fixed in 3.7% formaldehyde (Sigma, F1635) DNA was counterstained with 0.05 μg/mL DAPI (4,6-diamidino-2-phenylindole; Sigma-Aldrich, D9542). At least 500 cells were counted for each experimental point, and cells showing ≥15 dots were considered positive. Dots were counted using a pipeline created in a previous work on the CellProfiler software.[68] Data are presented as median with interquartile range. Samples were observed under a Nikon Eclipse Ti2 microscope with a 60× (1.4 NA) objective, equipped with a CrestOptics X-Light V3 confocal spinning disk and a back illuminated Kinetix sCMOS camera.

[5] = target: T1, KAT8 (Homo sapiens, UniProt Q9H7Z6); assay: Preincubation and jump-dilution analysis of KAT8 mode of inhibition; format: biochemical; conditions: for time-dependent inhibition of KAT8 (preincubation assay): 12.5 μM inhibitor, preincubation 5-120 min; for KAT8 activity regained after inhibitor dilution (jump-dilution): 10× IC50 (121 μM for 19, 81 μM for 34), 100-fold dilution, any timepoint 10-240 min
T1 construct: using the previously purified KAT8 (173–458, 5 nM); 6xHis tag with TEV protease cleavage site (N, cleaved yes); made in house; host or cells: E. coli BL21(DE3)
T1 sequence (Q9H7Z6 173-458): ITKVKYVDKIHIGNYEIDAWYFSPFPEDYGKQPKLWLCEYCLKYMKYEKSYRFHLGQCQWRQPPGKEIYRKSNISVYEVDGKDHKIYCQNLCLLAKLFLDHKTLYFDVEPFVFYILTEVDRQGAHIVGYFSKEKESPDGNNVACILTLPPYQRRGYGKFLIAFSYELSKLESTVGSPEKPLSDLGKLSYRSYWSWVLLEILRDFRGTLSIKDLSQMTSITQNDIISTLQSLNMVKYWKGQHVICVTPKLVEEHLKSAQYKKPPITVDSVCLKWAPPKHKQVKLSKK
Method: The preincubation assay was performed by incubating KAT8 with the relevant inhibitor (12.5 μM final concentration) for 5, 10, 20, 30, 60, and 120 min at rt. The activity of KAT8 was then measured as described in the “Radioactive KAT8 inhibition assay” paragraph of the Experimental Section. […] Fifty microliters were then incubated at rt for 10, 20, 30, 60, 120, and 240 min, and the mixtures were then processed as described in the “Radioactive KAT8 inhibition assay” paragraph of the Experimental section. Radioactive signal was normalized to the DMSO control reaction incubated for 240 min, converted in percent of KAT8 activity after 240 min, and plotted against each measurement time point. Experiments were performed in biological triplicates.

[6] = test system: HT29 cells; assay: Cell cycle analysis by propidium iodide staining, HT29; format: cell-based, human; conditions: 72 h
Method: (§3) For the analysis of the progression of cells through cell cycle phases and sub-G1 peak identification, 24 h after plating, cells were treated with the different compounds. After 72 h, both floating and adherent cells were collected and fixed with cold 70% ethanol. At least 24 h after fixation, cells were incubated with 0.025 mg/mL Propidium Iodide for 15 min at room temperature and analyzed. For Annexin V analysis, 24 h after plating, cells were treated with 50 and 100 μM of the compounds. In the case of chloroquine experiments, 10 μM chloroquine (Sigma-Aldrich, A9165) was added 30 min before compounds. 72 h after treatment, both floating and adherent cells were collected and stained with an Annexin V-FITC apoptosis detection kit (ENZO #ALX-850-020-KI). Samples were incubated 15 min in the dark at rt, and 10,000 events were then analyzed.

[7] = test system: HT29 cells; assay: MTT cell proliferation assay, HT29; format: cell-based, human; conditions: for antiproliferative activity in HT29: 10, 25, 50, 100 μM; for IC50: Homo sapiens, HT-29, 72 h treatment, MTT
Description: as §1, §2

[8] = test system: U251 cells; assay: MTT cell proliferation assay, U251; format: cell-based, human; conditions: 10, 25, 50, 100 μM, 72 h
Description: as §1, §2

[9] = test system: HeLa cells; assay: Cell cycle analysis by propidium iodide staining, HeLa; format: cell-based, human; conditions: 72 h
Method: as §3

| IC50 ([2]; Homo sapiens, A549) | KAT8 activity regained after inhibitor dilution (jump-dilution) [5] | IC50 [7] | Compound | antiproliferative activity in H460 [1] | antiproliferative activity in A549 ([2]; 72 h) | inhibition at 50 µM ([2]; Homo sapiens, A549, 50 μM, 72 h) | inhibition at 100 µM ([2]; Homo sapiens, A549, 100 μM, 72 h) | levels of histone H3K27Ac (IF) [3] | EGFP-LC3 dots per cell [4] | time-dependent inhibition of KAT8 (preincubation assay) [5] | change in the different stages of cell cycle, HT29 [6] | decrease of cell viability, HT29 ([7]; 100 μM, 72 h) | antiproliferative activity in HT29 ([7]; 72 h) | antiproliferative activity in U251 [8] | change in the different stages of cell cycle, HeLa [9] |
| --- | --- | --- | --- | --- | --- | --- | --- | --- | --- | --- | --- | --- | --- | --- | --- |
| 33 ± 5.7 µM | ~90% | 54 ± 10.9 µM | O=C(O)c1ccc(N2N=C(c3ccccc3)/C(=C/c3ccc[nH]3)C2=O)cc1 [Compound 34, (Z)-4-(4-((1H-Pyrrol-2-yl)methylene)-5-oxo-3-phenyl-4,5-dihydro-1H-pyrazol-1-yl)benzoic Acid] | essentially inactive | dose-dependent antiproliferative effects | ~65% | ~80% | no significant differences | significantly increased | did not observe time-dependent inhibition | no significative change | 70% | a certain degree of antiproliferative activity | neither inhibitor had any effect | no significative change |
| 41 ± 9.8 µM | ~90% | > 100 µM | CC1=NN(c2ccc(C(=O)O)cc2)C(=O)/C1=C\c1ccc[nH]1 [Compound 19, (Z)-4-(4-((1H-Pyrrol-2-yl)methylene)-3-methyl-5-oxo-4,5-dihydro-1H-pyrazol-1-yl)benzoic Acid] | inhibited H460 proliferation | dose-dependent antiproliferative effects |  |  | no significant differences | significantly increased | did not observe time-dependent inhibition | no significative change |  | a certain degree of antiproliferative activity | neither inhibitor had any effect | no significative change |
